Laboratory results reported in patent publication US20160046618A1, “Cyclopropyl Fused Thiazin-2-Amine Compounds as Beta-Secretase Inhibitors and Methods of Use” (AMGEN INC., priority 2014, published 2016).
Read-outs that look alike come from different tables or passages of the source.

Experiments:
[1] = molecular target: human recombinant BACE1 (Homo sapiens (Human), UniProt P56817); experiment: In vitro enzymatic BACE1 FRET assay; assay type: biochemical; conditions: read-out: IC50 IP (μM) BACE1 enzyme
Sequence of human recombinant BACE1 (P56817 46-501): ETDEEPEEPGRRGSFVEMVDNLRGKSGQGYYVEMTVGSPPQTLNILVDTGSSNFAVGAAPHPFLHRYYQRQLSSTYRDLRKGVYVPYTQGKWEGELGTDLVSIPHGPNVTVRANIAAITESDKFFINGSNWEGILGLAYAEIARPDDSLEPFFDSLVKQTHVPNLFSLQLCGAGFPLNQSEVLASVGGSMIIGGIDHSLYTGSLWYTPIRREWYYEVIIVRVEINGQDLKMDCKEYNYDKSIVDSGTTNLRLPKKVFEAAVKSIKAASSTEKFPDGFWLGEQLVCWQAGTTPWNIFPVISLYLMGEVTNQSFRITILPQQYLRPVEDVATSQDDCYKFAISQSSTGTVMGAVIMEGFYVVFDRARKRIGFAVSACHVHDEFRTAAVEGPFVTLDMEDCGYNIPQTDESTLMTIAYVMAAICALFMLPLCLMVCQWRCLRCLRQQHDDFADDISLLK
Summary of the method: (§1)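 Tris addition raises the pH to neutral to stop the reaction before fluorescence is measured at 590 nm emission with 488 nm excitation.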

[2] = molecular target: human recombinant BACE2 (Homo sapiens (Human), UniProt Q9Y5Z0); experiment: In vitro enzymatic BACE2 FRET assay; assay type: biochemical; conditions: read-out: IC50 IP (μM) BACE2 enzyme
Sequence of human recombinant BACE2 (Q9Y5Z0 63-518): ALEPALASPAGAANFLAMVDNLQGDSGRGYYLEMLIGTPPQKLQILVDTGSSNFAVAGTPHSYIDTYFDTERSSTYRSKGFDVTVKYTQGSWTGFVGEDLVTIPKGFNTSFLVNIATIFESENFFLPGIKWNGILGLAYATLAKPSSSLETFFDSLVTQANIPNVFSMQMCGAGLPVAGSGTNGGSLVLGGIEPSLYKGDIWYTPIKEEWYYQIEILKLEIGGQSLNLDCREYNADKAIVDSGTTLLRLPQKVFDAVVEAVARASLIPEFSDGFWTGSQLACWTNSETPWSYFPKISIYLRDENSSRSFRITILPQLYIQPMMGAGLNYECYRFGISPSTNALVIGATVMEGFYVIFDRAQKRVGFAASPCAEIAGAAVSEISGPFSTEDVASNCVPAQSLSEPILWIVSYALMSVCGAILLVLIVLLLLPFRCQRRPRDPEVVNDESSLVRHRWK
Summary of the method: as §1

[3] = system: Aβ40 in conditioned medium of cells stably expressing Amyloid Precursor Protein (APP); experiment: In vitro BACE-1 cell-based assay (Aβ40 sandwich ELISA); conditions: read-out: IC50 IP (μM) BACE1 cell
Summary of the method: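 Read-out: time-resolved fluorescence (Streptavidin-Europium) of Aβ40 captured by pAb40 and detected with biotinylated 6E10 from supernatants of APP-stable cells. Cells were exposed to compound for 24 h, 10-point dose response, top dose 100 μM or 10 μM, 0.1% DMSO. IC50 fitted to percent of control.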

[4] = molecular target: Recombinant Cat D (Homo sapiens (Human), UniProt P07339); experiment: In vitro enzymatic Cathepsin D (Cat D) FRET assay; assay type: biochemical; conditions: read-out: IC50 IP (μM) CatD
Sequence of Recombinant Cat D (P07339 65-412): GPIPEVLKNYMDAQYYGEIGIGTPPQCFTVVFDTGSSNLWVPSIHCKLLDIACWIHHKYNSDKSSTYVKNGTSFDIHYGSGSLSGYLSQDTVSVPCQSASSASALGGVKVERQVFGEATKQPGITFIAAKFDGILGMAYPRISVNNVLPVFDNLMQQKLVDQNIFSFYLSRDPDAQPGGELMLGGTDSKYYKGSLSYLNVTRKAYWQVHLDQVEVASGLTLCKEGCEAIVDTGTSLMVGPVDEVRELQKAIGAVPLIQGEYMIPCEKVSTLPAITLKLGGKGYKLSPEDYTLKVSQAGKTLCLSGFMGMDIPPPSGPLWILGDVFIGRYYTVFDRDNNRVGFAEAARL
Summary of the method: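 Human Cat D expressed in CHO cells was incubated for one hour in 0.05 M citrate pH 3.5, 5 mM CHAPS, 10% DMSO final, with 20 nM quenched FRET peptide substrate. Reactions were stopped with Tris buffer raising pH to neutrality. Cleavage was read as fluorescence at excitation 500 nm, emission 580 nm.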

[5] = system: Aβ 40 in rat CSF; experiment: In vivo inhibition of beta-secretase: Aβ40 reduction in rat CSF; conditions: 10 mpk, after 4 h
Summary of the method: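 Male Sprague Dawley rats (200 g) dosed orally in 2% HPMC, 1% Tween80, pH 2.2, at 3, 10 or 30 mg/kg; CSF and brain taken 4 h later. Brain homogenate centrifuged at 355,000 g; Aβ40 measured by ECL sandwich ELISA (4G8 capture, Abeta40 C-terminal Fab detection), as % reduction versus vehicle controls.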

[6] = system: Aβ 40 in rat brain; experiment: In vivo inhibition of beta-secretase: Aβ40 reduction in rat brain; conditions: 10 mpk, after 4 h
Summary of the method: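 Rats were dosed by oral gavage at up to 100 mg/kg in 2% HPMC, 1% Tween80, pH 2.2, with vehicle-only controls. Supernatant Aβ40 was measured by ECL sandwich ELISA with biotinylated-4G8 capture and C-terminal Fab40 detection.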

| SMILES | IC50 ([1]; BACE1 FRET enzyme assay) | IC50 ([2]; BACE2 FRET enzyme assay) | IC50 ([3]; BACE1 cell-based assay) | IC50 ([4]; Cathepsin D FRET enzyme assay) | % Aβ 40 reduction in rat CSF at 10 mpk [5] | % Aβ 40 reduction in rat brain at 10 mpk [6] | IC50 [1] | IC50 [2] | IC50 [3] | IC50 [4] |
| --- | --- | --- | --- | --- | --- | --- | --- | --- | --- | --- |
| C[C@]1(c2cc(Nc3ncnc4cc(C#N)cnc34)cc(F)c2F)N=C(N)S[C@@]2(C(F)F)C[C@@H]12 [Example 95, 4-((3-((1S,5S,6S)-3-amino-1-(difluoromethyl)-5-methyl-2-thia-4-azabicyclo[4.1.0]hept-3-en-5-yl)-4,5-difluorophenyl)amino)pyrido[3,2-d]pyrimidine-7-carbonitrile] | 0.00426 µM | 0.00837 µM | 0.0138 µM | 133 µM | 69% | 60% |  |  |  |  |
| C#CCOc1cnc(C(=O)Nc2cnc(OC)c([C@@]3(C)N=C(N)S[C@@]4(CF)C[C@H]43)c2)cn1 [Example 612, N-(5-((1S,5S,6S)-3-amino-1-(fluoromethyl)-5-methyl-2-thia-4-azabicyclo[4.1.0]hept-3-en-5-yl)-6-methoxy-3-pyridinyl)-5-(2-propyn-1-yloxy)-2-pyrazinecarboxamide] |  |  |  |  | 84% | 82% | 0.00115 µM | 0.0544 µM | 0.00103 µM | 196 µM |
| C#CCOc1cnc2c(Nc3cc(F)c(F)c([C@@]4(C)N=C(N)S[C@@]5(COC)C[C@H]54)c3)nccc2n1 [Example 627, N-(3-((1S,5S,6S)-3-amino-1-(methoxymethyl)-5-methyl-2-thia-4-azabicyclo[4.1.0]hept-3-en-5-yl)-4,5-difluorophenyl)-2-(2-propyn-1-yloxy)pyrido[3,4-b]pyrazin-5-amine] |  |  |  |  | 59% | 50% | 0.00114 µM | 0.0384 µM | 0.00428 µM | 1390 µM |
| COC[C@]12C[C@H]1[C@@](C)(c1cc(Nc3nccc4nc(OCc5cocn5)cnc34)cc(F)c1F)N=C(N)S2 [Example 628, N-(3-((1S,5S,6S)-3-amino-1-(methoxymethyl)-5-methyl-2-thia-4-azabicyclo[4.1.0]hept-3-en-5-yl)-4,5-difluorophenyl)-2-(1,3-oxazol-4-ylmethoxy)pyrido[3,4-b]pyrazin-5-amine] |  |  |  |  | 59% | 50% | 0.00324 µM | 0.0383 µM | 0.0148 µM | 443 µM |
| COC[C@]12C[C@H]1[C@@](C)(c1cc(Nc3nccc4nc(OCc5ncco5)cnc34)cc(F)c1F)N=C(N)S2 [Example 631, N-(3-((1S,5S,6S)-3-amino-1-(methoxymethyl)-5-methyl-2-thia-4-azabicyclo[4.1.0]hept-3-en-5-yl)-4,5-difluorophenyl)-2-(1,3-oxazol-2-ylmethoxy)pyrido[3,4-b]pyrazin-5-amine] |  |  |  |  | 52% | 47% | 0.00173 µM | 0.055 µM | 0.00325 µM | 475 µM |
| Cc1cc(OCc2ncco2)cnc1C(=O)Nc1cc(F)c(F)c([C@@]2(C)N=C(N)S[C@@]3(CF)C[C@H]32)c1 [Example 645, N-(3-((1S,5S,6S)-3-amino-1-(fluoromethyl)-5-methyl-2-thia-4-azabicyclo[4.1.0]hept-3-en-5-yl)-4,5-difluorophenyl)-3-methyl-5-(1,3-oxazol-2-ylmethoxy)-2-pyridinecarboxamide] |  |  |  |  | 53% | 34% | 0.00337 µM | 0.143 µM | 0.0246 µM | 477 µM |
| C#CCOc1cnc2c(Nc3cnc(F)c([C@@]4(C)N=C(N)S[C@@]5([C@@H](O)C(F)(F)F)C[C@H]54)c3)nccc2n1 [Example 660, (1S)-1-((1S,5S,6S)-3-amino-5-(2-fluoro-5-((2-(2-propyn-1-yloxy)pyrido[3,4-b]pyrazin-5-yl)amino)-3-pyridinyl)-5-methyl-2-thia-4-azabicyclo[4.1.0]hept-3-en-1-yl)-2,2,2-trifluoroethanol] |  |  |  |  | 38% | 26% | 0.00133 µM | 0.0235 µM | 0.00345 µM | 554 µM |
| C#CCOc1cnc2c(Nc3cnc(F)c([C@@]4(C)N=C(N)S[C@@]5(CO)C[C@H]54)c3)nccc2n1 [Example 662, ((1S,5S,6S)-3-amino-5-(2-fluoro-5-((2-(2-propyn-1-yloxy)pyrido[3,4-b]pyrazin-5-yl)amino)-3-pyridinyl)-5-methyl-2-thia-4-azabicyclo[4.1.0]hept-3-en-1-yl)methanol] |  |  |  |  | 40% | 37% | 0.000437 µM | 0.0199 µM | 0.00049 µM | 1060 µM |
| Cc1cc(OCC(F)(F)F)cnc1C(=O)Nc1cc(F)c(F)c([C@@]2(C)N=C(N)S[C@@]3(CF)C[C@H]32)c1 [Example 678, N-(3-((1S,5S,6S)-3-amino-1-(fluoromethyl)-5-methyl-2-thia-4-azabicyclo[4.1.0]hept-3-en-5-yl)-4,5-difluorophenyl)-3-methyl-5-(2,2,2-trifluoroethoxy)-2-pyridinecarboxamide] |  |  |  |  | 40% | 11% | 0.00612 µM | 0.579 µM | 0.0286 µM | 747 µM |
| Cc1cc(OCC(F)(F)F)cnc1C(=O)Nc1cc(F)c(F)c([C@@]2(C)N=C(N)S[C@@]3(C(F)F)C[C@@H]23)c1 [Example 679, N-(3-((1S,5S,6S)-3-amino-1-(difluoromethyl)-5-methyl-2-thia-4-azabicyclo[4.1.0]hept-3-en-5-yl)-4,5-difluorophenyl)-3-methyl-5-(2,2,2-trifluoroethoxy)-2-pyridinecarboxamide] |  |  |  |  | 20% | 6% | 0.00435 µM | 0.746 µM | 0.0495 µM | 375 µM |
| Cc1cc(OCC(F)(F)F)cnc1C(=O)Nc1ccc(F)c([C@@]2(C)N=C(N)S[C@@]3(C(F)F)C[C@@H]23)c1 [Example 680, N-(3-((1S,5S,6S)-3-amino-1-(difluoromethyl)-5-methyl-2-thia-4-azabicyclo[4.1.0]hept-3-en-5-yl)-4-fluorophenyl)-3-methyl-5-(2,2,2-trifluoroethoxy)-2-pyridinecarboxamide] |  |  |  |  | 30% | 8% | 0.0139 µM | 0.846 µM | 0.0153 µM | 1110 µM |
| Cc1cc(OCC(F)(F)F)cnc1C(=O)Nc1ccc(F)c([C@@]2(C)N=C(N)S[C@@]3(CF)C[C@H]32)c1 [Example 689, N-(3-((1S,5S,6S)-3-amino-1-(fluoromethyl)-5-methyl-2-thia-4-azabicyclo[4.1.0]hept-3-en-5-yl)-4-fluorophenyl)-3-methyl-5-(2,2,2-trifluoroethoxy)-2-pyridinecarboxamide] |  |  |  |  | 38% | 10% | 0.0105 µM | 0.819 µM | 0.0464 µM | > 400 µM |
| C[C@]1(c2cc(NC(=O)c3ccc(OCC(F)(F)F)cn3)ccc2F)N=C(N)S[C@@]2(CF)C[C@H]21 [Example 697, N-(3-((1S,5S,6S)-3-amino-1-(fluoromethyl)-5-methyl-2-thia-4-azabicyclo[4.1.0]hept-3-en-5-yl)-4-fluorophenyl)-5-(2,2,2-trifluoroethoxy)-2-pyridinecarboxamide] |  |  |  |  | 35% | 13% | 0.00629 µM | 0.338 µM | 0.0315 µM | > 400 µM |
| COC[C@]12C[C@H]1[C@@](C)(c1cc(NC(=O)c3ccc(OCC(F)(F)F)cn3)ccc1F)N=C(N)S2 [Example 698, N-(3-((1S,5S,6S)-3-amino-1-(methoxymethyl)-5-methyl-2-thia-4-azabicyclo[4.1.0]hept-3-en-5-yl)-4-fluorophenyl)-5-(2,2,2-trifluoroethoxy)-2-pyridinecarboxamide] |  |  |  |  | 15% | −7% | 0.0086 µM | 0.316 µM | 0.0116 µM | > 400 µM |
